Experimental findings from patent publication US9226919B2, “Methods for dosing an orally active 1,2,4-oxadiazole” (PTC Therapeutics, Inc., priority 2006, dated 2016) are described below.

SMILES strings stand for the structures.

Common to all, as to format: in vivo, human
Assay [1] is described as follows: Body weight, Phase 2 cystic fibrosis study. The source says: 3-[5-(2-Fluoro-phenyl)-[1,2,4]oxadiazol-3-yl]-benzoic acid was provided in a formulation described herein.
Statistically significant results and positive trends for secondary endpoints were also observed. In particular, although the trials were not been powered to detect statistical significant changes in secondary endpoints, statistically significant improvements from study entry to the end of the higher-dose treatment cycle in the patients' mean FEV1, FVC and weight were observed.

Assay [2] concerns CFTR. Kind of assay: Transepithelial potential difference (TEPD) chloride conductance, Phase 2 cystic fibrosis study. The following applies: 15 CF patients. The protocol: The measurement of transepithelial potential difference (TEPD), also known as nasal potential difference, provides a sensitive evaluation of sodium and chloride transport directly in secretory epithelial cells via assessment of transepithelial bioelectric properties (Knowles et al., 1981, N. Engl. J. Med. 305(25):1489-95; Knowles et al., 1995, Hum. Gene Ther. 6:445). TEPD is performed in each nostril using standardized techniques (Standaert et al., 2004, Ped. Pulm. 37:385-92). In the procedure, a small plastic catheter is used to assess electrical differences across the outer cell membrane of nasal mucosa cells in the nostril. TEPD values are expressed in millivolts, or mV. A chloride conductance equal to or more electrically negative than −5.0 mV is generally considered to be in the normal range. […] TEPD assessments can also be made on rectal epithelial cells and lower respiratory epithelial cells. Because of the role of the CFTR protein in transporting chloride ions across cell membranes, and because of the absence of this protein, cystic fibrosis patients have an abnormal TEPD chloride conductance. As an endpoint, TEPD has the advantage that it can detect chloride transport changes that are a quantitative integration of the presence, functional activity, and apical location of the CFTR in airway cells. Furthermore, it is a direct measure of CFTR activity that is not likely to be affected by supportive or palliative treatments for CF (with the possible exception of systemically administered aminoglycoside antibiotics). Of importance is evidence that TEPD values can correlate with the degree of pulmonary dysfunction and radiographic abnormality (Ho et al., 1997, Eur. Respir. J. 10(9):2018-22; Fajac et al., 1998, Eur. Respir. J 12(6):1295-300; Sermet-Gaudelus et al., 2005, Am. J. Respit. Crit. Care Med. 171(9):1026-1031). […] Under baseline conditions, TEPD-assessed chloride channel activity is very unlikely to normalize spontaneously in patients with CF; any observed improvements in TEPD-assessed chloride channel activity are expected to specifically denote pharmacological activity of CFTR-correcting therapies. […]
Clinical endpoints were evaluated using the procedures set forth above. […] Pulmonary tests, including FEV1, FVC and MEF25-75, were measured prior to treatment, on day −1 of Cycle 2, on day 13 or 14 of Cycle 1 and day 13 or 14 of Cycle 2 in the study being conducted in Israel and the same parameters were measured prior to treatment and on day 13 or 14 of Cycle 2 in the study being conducted in the United States. […]

The subject of assay [3] is patients with nonsense-mutation-mediated cystic fibrosis. Kind of assay: Investigator-asked changes in cystic fibrosis symptoms, Phase 2 studies. The source says:
In addition, although changes in patient's symptoms were not formally measured through the use of a quality-of-life questionnaire, trial investigators were requested to ask about changes in patients' cystic fibrosis symptoms. In the 15 patients included in the interim analysis, 6 reported general improvements in well being, 6 reported decrease in cough and 10 reported decreased mucus thickness and easier clearing of mucus.
The device was used to obtain the data set forth in FIG. 2 and will be used to offer substantial supplementary data regarding the clinical benefits of 3-[5-(2-fluoro-phenyl)-[1,2,4]oxadiazol-3-yl]-benzoic acid during Phase 3 testing in CF. Existing informally collected symptom data from the Phase 2 studies of 3-[5-(2-fluoro-phenyl)-[1,2,4]oxadiazol-3-yl]-benzoic acid support this concept. […] Without being limited by theory, based on the hypothesis that 3-[5-(2-fluoro-phenyl)-[1,2,4]oxadiazol-3-yl]-benzoic acid-mediated induction of CFTR function would reduce airway obstruction and inflammation, a decrease in cough frequency could serve as a symptomatic integration of these pharmacological effects and might offer a more accurate and quantitative assessment than verbal patient reporting.

Where [4] appears, read: higher dose level (10, 10, 20 mg/kg TID, 14 days).
[5] abbreviates: lower dose level (4, 4, 8 mg/kg TID, 14 days).
[6] abbreviates: of 15 CF patients in interim analysis.

For `O=C(O)c1cccc(-c2noc(-c3ccccc3F)n2)c1` [3-[5-(2-fluoro-phenyl)-[1,2,4]oxadiazol-3-yl]-benzoic acid], in assay [1] (end of higher-dose cycle (10, 10, 20 mg/kg TID), study entry 58.3 kg), the “Weight, End of Higher Dose Treatment” value was determined as 59.0 kg. The “Weight, Change” value in assay [1] (study entry to end of higher dose treatment) came out at 0.7 kg. Further, in assay [2] (setting [4]), the “Mean change in TEPD chloride conductance, best of nostrils” value is −6.4 mV and the “Mean change in TEPD chloride conductance, mean of both nostrils” value is listed as −4.4 mV. In addition, in assay [2] (setting [5]), the “Mean change in TEPD chloride conductance, best of nostrils” value is −9.0 mV and the “Mean change in TEPD chloride conductance, mean of both nostrils” value was −6.7 mV. In assay [3] (setting [6]), the “Patients reporting decrease in cough” value is 6; the “Patients reporting decreased mucus thickness and easier clearing of mucus” value came out at 10; the “Patients reporting general improvements in well being” value is 6. Also, in assay [3] (several patients, informally collected symptom data, Phase 2 studies), the Patient-described on-study coughing entry was “decreases in coughing”.
